Consider 31 molecules from US11407767B2, “Heterocyclyl substituted pyrrolopyridines that are inhibitors of the CDK12 kinase” (The University of Nottingham, priority 2017, dated 2022).

Bounds are passed on as bounds.

CDK12/CycK, sequence (Q9NYV4 whole entry): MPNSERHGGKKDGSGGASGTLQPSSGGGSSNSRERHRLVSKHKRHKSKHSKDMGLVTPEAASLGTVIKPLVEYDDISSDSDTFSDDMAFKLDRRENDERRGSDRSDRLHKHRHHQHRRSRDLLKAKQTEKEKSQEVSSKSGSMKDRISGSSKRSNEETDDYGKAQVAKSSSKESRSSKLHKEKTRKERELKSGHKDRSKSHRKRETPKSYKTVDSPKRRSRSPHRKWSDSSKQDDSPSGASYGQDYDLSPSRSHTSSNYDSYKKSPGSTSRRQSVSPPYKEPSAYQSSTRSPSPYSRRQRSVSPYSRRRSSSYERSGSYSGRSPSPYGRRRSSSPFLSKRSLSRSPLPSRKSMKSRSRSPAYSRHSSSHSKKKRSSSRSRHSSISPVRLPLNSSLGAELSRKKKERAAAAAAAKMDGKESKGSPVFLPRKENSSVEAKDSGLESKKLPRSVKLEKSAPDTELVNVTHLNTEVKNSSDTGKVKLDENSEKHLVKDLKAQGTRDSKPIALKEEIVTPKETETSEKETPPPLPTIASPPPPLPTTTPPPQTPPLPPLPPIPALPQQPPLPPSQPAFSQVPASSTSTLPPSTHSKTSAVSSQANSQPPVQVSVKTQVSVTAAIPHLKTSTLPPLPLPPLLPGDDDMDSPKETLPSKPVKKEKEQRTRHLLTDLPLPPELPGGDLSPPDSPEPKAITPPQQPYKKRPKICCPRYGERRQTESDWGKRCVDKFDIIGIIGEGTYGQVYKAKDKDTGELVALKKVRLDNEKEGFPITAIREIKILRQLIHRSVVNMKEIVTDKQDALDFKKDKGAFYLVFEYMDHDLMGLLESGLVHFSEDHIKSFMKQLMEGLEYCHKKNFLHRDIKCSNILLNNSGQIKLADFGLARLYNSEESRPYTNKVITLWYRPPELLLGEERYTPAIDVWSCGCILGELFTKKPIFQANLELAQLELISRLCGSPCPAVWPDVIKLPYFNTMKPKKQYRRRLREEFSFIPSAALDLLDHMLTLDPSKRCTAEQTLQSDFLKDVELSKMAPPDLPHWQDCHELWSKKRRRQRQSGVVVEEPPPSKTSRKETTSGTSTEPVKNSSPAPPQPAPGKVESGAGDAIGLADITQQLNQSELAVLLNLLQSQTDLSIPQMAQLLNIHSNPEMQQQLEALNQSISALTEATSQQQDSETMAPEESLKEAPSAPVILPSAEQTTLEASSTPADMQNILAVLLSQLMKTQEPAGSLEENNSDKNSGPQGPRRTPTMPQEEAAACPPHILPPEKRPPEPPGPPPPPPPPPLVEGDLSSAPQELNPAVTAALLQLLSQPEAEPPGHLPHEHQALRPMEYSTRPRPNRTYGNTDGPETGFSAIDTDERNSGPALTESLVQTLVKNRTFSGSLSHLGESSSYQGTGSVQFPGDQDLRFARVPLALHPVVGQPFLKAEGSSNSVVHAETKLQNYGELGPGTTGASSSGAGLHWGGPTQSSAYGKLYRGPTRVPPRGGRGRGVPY
CDK12/CycK, sequence (O75909 whole entry partner): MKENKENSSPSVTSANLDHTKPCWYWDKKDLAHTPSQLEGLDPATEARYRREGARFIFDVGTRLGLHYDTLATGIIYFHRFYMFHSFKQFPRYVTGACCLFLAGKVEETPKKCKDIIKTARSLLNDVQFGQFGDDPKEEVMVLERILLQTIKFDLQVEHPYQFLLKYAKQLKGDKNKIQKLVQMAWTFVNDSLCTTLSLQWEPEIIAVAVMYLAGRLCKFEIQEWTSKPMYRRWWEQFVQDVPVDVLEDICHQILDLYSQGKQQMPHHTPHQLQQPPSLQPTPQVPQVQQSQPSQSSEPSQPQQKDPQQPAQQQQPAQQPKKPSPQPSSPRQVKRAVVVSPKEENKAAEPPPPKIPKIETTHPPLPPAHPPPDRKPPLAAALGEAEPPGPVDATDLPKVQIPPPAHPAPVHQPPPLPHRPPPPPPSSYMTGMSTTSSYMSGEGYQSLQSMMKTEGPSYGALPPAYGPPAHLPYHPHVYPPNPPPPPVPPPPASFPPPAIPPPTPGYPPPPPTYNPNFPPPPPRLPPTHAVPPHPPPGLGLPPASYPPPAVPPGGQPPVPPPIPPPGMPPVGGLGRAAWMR

This test addresses CDK12/CycK (Homo sapiens, UniProt Q9NYV4). The test can be described thus: Inhibition of CDK12 (ADP-Glo kinase assay). Format: biochemical. The note with it: 60 nM CDK12/CycK, 30 minutes pre-incubation, 1 μM ATP, 0.5 μM RBER-IRStide substrate, 1 h at 25° C., read-out: CDK12/cyclin K IC50. On the procedure: Assay buffer comprised 50 mM HEPES pH 7.5, 1 mM DTT, 20 mM MgCl2, 3 mM MnCl2, 3 μM Na3VO4 and 50 μg/ml PEG8000. Kinase reactions were carried out in 384-well Optiplates™ (PerkinElmer 6007299). Test compounds were dissolved & diluted in dimethyl sulfoxide (DMSO) and cross diluted into assay buffer with a final DMSO concentration of 1% (v/v) in the assay. Test compounds (or 1% DMSO in control and blank wells) were pre-incubated with 60 nM CDK12/CycK for 30 minutes. After this time 1 μM Adenosine-5′-triphosphate (ATP) and 0.5 μM RBER-IRStide substrate (ProQinase 0863-0000-1) were added to commence the kinase reaction. Incubations were carried out for 1 h at 25° C. with kinase activity determined using the ADP-Glo™ reagent from Promega according to the manufacturer's instructions. Light generated is proportional to kinase activity and measured using a luminometer (EnVision, PerkinElmer). The signal obtained in the blank wells (containing no kinase) was subtracted from all other wells and IC50 values were determined by fitting a sigmoidal curve to % inhibition of control versus Log10 compound concentration.
Regarding `CN(C)C/C=C/C(=O)Nc1ccc(C(=O)NCc2cc3c(-c4cnn5ncccc45)ccnc3[nH]2)cc1` [Example 181], the IC50 was 100 to 1000 nM.
On to `Cc1ccc2c(-c3ccnc4[nH]ccc34)cnn2n1` [Example 26, 6-Methyl-3-(1H-pyrrolo[2,3-b]pyridin-4-yl)pyrazolo[1,5-b]pyridazine], for which the IC50 was 1000 to 30000 nM.
Consider `C=CC(=O)N1CCC[C@H]1C(=O)N1CC[C@H](c2cc3c(-c4cnn5ncccc45)ccnc3[nH]2)C1` [Example 162, 1-((S)-2-((S)-3-(4-(Pyrazolo[1,5-b]pyridazin-3-yl)-1H-pyrrolo[2,3-b]pyridin-2-yl)pyrrolidine-1-carbonyl)pyrrolidin-1-yl)prop-2-en-1-one], for which the IC50 is less than 100 nM.
For `C=CC(=O)Nc1cccc(C(=O)NCCCc2cc3c(-c4cnn5ncccc45)ccnc3[nH]2)c1` [Example 215, 3-Acrylamido-N-(3-(4-(pyrazolo[1,5-b]pyridazin-3-yl)-1H-pyrrolo[2,3-b]pyridin-2-yl)propyl)benzamide], the IC50 was less than 100 nM.
Turning to `Clc1cnc2[nH]ccc2c1-c1cnn2ncccc12` [Example 132, 3-(5-Chloro-1H-pyrrolo[2,3-b]pyridin-4-yl)pyrazolo[1,5-b]pyridazine], the IC50 lay in the range of 100 to 1000 nM.
Take `CCC(=O)Nc1ccc(C(=O)NCc2cc3c(-c4cnn5ncccc45)ccnc3[nH]2)cc1` [Example 188, 4-Propionamido-N-((4-(pyrazolo[1,5-b]pyridazin-3-yl)-1H-pyrrolo[2,3-b]pyridin-2-yl)methyl)benzamide]: the IC50 was in the range of 1000 to 30000 nM.
Next, `O=C(NCCc1cc2c(-c3cnn4ncccc34)ccnc2[nH]1)[C@@H]1CCCN1C(=O)/C=C/CN1CCOCC1` [Example 86, (S,E)-1-(4-Morpholinobut-2-enoyl)-N-(2-(4-(pyrazolo[1,5-b]pyridazin-3-yl)-1H-pyrrolo[2,3-b]pyridin-2-yl)ethyl)pyrrolidine-2-carboxamide]: 1000 to 30000 nM.
With `C=CC(=O)N[C@@H]1CC[C@@H](C(=O)NCCc2cc3c(-c4cnn5ncccc45)ccnc3[nH]2)C1` [Example 64, (1R,3R)-3-Acrylamido-N-(2-(4-(pyrazolo[1,5-b]pyridazin-3-yl)-1H-pyrrolo[2,3-b]pyridin-2-yl)ethyl)cyclopentane-1-carboxamide] the figure was 100 to 1000 nM.
Next, `C=CC(=O)N1CCC[C@H](C(=O)NCc2cc3c(-c4cnn5ncccc45)ccnc3[nH]2)C1` [Example 186, (S)-1-Acryloyl-N-((4-(pyrazolo[1,5-b]pyridazin-3-yl)-1H-pyrrolo[2,3-b]pyridin-2-yl)methyl)piperidine-3-carboxamide]: 1000 to 30000 nM; `O=C(CCl)Nc1ccccc1C(=O)N1CCC(c2cc3c(-c4cnn5ncccc45)ccnc3[nH]2)C1` (stereo not shown) [Example 169, 2-Chloro-N-(2-(3-(4-(pyrazolo[1,5-b]pyridazin-3-yl)-1H-pyrrolo[2,3-b]pyridin-2-yl)pyrrolidine-1-carbonyl)phenyl)acetamide]: less than 100 nM.
Turning to `O=C(NCCc1cc2c(-c3cnn4ncccc34)ccnc2[nH]1)[C@H]1CCCN1C(=O)CO` [Example 79, (R)-1-(2-Hydroxyacetyl)-N-(2-(4-(pyrazolo[1,5-b]pyridazin-3-yl)-1H-pyrrolo[2,3-b]pyridin-2-yl)ethyl)pyrrolidine-2-carboxamide], the IC50 was 100 to 1000 nM.
With `C=CC(=O)N1CCC[C@H]1C(=O)NCCc1cc2c(-c3cccnc3)ccnc2[nH]1` [Example 105, (S)-1-Acryloyl-N-(2-(4-(pyridin-3-yl)-1H-pyrrolo[2,3-b]pyridin-2-yl)ethyl)pyrrolidine-2-carboxamide] the figure was 1000 to 30000 nM; with `C=CC(=O)N1CCOC[C@H]1C(=O)NCCc1cc2c(-c3cnn4ncccc34)ccnc2[nH]1` [Example 165, (S)-4-Acryloyl-N-(2-(4-(pyrazolo[1,5-b]pyridazin-3-yl)-1H-pyrrolo[2,3-b]pyridin-2-yl)ethyl)morpholine-3-carboxamide], less than 100 nM.
With `CC(C)(C)OC(=O)N1CCC(c2cc3c(-c4cnn5ncccc45)ccnc3[nH]2)C1` (stereo not shown) [Example 119, tert-Butyl 3-(4-(pyrazolo[1,5-b]pyridazin-3-yl)-1H-pyrrolo[2,3-b]pyridin-2-yl)pyrrolidine-1-carboxylate] the figure was 100 to 1000 nM.
On to `NCCc1cc2c(-c3cnn4ncccc34)ccnc2[nH]1` [Example 30, 2-(4-(Pyrazolo[1,5-b]pyridazin-3-yl)-1H-pyrrolo[2,3-b]pyridin-2-yl)ethan-1-amine], for which the IC50 was in the range of 100 to 1000 nM.
With `CN(C)C/C=C/C(=O)Nc1cncc(C(=O)N2CC[C@H](c3cc4c(-c5cnn6ncccc56)ccnc4[nH]3)C2)c1` [Example 68, (S,E)-4-(Dimethylamino)-N-(5-(3-(4-(pyrazolo[1,5-b]pyridazin-3-yl)-1H-pyrrolo[2,3-b]pyridin-2-yl)pyrrolidine-1-carbonyl)pyridin-3-yl)but-2-enamide] the figure was less than 100 nM; with `O=C(CCl)N1CCC(C(=O)N2CCC(c3cc4c(-c5cnn6ncccc56)ccnc4[nH]3)C2)CC1` (stereo not shown) [Example 158, 2-Chloro-1-(4-(3-(4-(pyrazolo[1,5-b]pyridazin-3-yl)-1H-pyrrolo[2,3-b]pyridin-2-yl)pyrrolidine-1-carbonyl)piperidin-1-yl)ethan-1-one], less than 100 nM; with `O=C(NCCc1cc2c(-c3cnn4ncccc34)ccnc2[nH]1)[C@@H]1CCCN1C(=O)C1=CCCC1` [Example 166, (S)-1-(Cyclopent-1-ene-1-carbonyl)-N-(2-(4-(pyrazolo[1,5-b]pyridazin-3-yl)-1H-pyrrolo[2,3-b]pyridin-2-yl)ethyl)pyrrolidine-2-carboxamide], 100 to 1000 nM.
In the case of `O=C(NCCc1cc2c(-c3cnn4ncccc34)ccnc2[nH]1)[C@@H]1CCCN1C(=O)CCl` [Example 41, (S)-1-(2-Chloroacetyl)-N-(2-(4-(pyrazolo[1,5-b]pyridazin-3-yl)-1H-pyrrolo[2,3-b]pyridin-2-yl)ethyl)pyrrolidine-2-carboxamide], the IC50 is 100 to 1000 nM.
Next, `c1cnn2ncc(-c3ccnc4[nH]c([C@H]5CCNC5)cc34)c2c1` (single isomer, unassigned) [Example 125, 3-(2-(Pyrrolidin-3-yl)-1H-pyrrolo[2,3-b]pyridin-4-yl)pyrazolo[1,5-b]pyridazine]: 100 to 1000 nM; `O=C(NCCc1cc2c(-c3cnn4ncccc34)ccnc2[nH]1)[C@@H]1CCCN1C(=O)CO` [Example 78, (S)-1-(2-Hydroxyacetyl)-N-(2-(4-(pyrazolo[1,5-b]pyridazin-3-yl)-1H-pyrrolo[2,3-b]pyridin-2-yl)ethyl)pyrrolidine-2-carboxamide]: 100 to 1000 nM.
Next, `C=CC(=O)N1CCC1C(=O)NCCc1cc2c(-c3cnn4ncccc34)ccnc2[nH]1` (single isomer, unassigned) [Example 40]: less than 100 nM.
Consider `CCNCCc1cc2c(-c3cnn4ncccc34)ccnc2[nH]1` [Example 31, N-ethyl-2-(4-(pyrazolo[1,5-b]pyridazin-3-yl)-1H-pyrrolo[2,3-b]pyridin-2-yl)ethan-1-amine], for which the IC50 lay in the range of 100 to 1000 nM.
As to `C=CC(=O)N(C)c1ccc(C(=O)NCc2cc3c(-c4cnn5ncccc45)ccnc3[nH]2)cc1` [Example 190, 4-(N-Methylacrylamido)-N-((4-(pyrazolo[1,5-b]pyridazin-3-yl)-1H-pyrrolo[2,3-b]pyridin-2-yl)methyl)benzamide], the IC50 was 100 to 1000 nM.
Next, `C=CC(=O)Nc1cccc(C(=O)N(C)CCc2cc3c(-c4cnn5ncccc45)ccnc3[nH]2)c1` [Example 49, 3-Acrylamido-N-methyl-N-(2-(4-(pyrazolo[1,5-b]pyridazin-3-yl)-1H-pyrrolo[2,3-b]pyridin-2-yl)ethyl)benzamide]: 100 to 1000 nM; `CCn1nccc1-c1ccnc2[nH]ccc12` [Example 19, 4-(1-Ethyl-1H-pyrazol-5-yl)-1H-pyrrolo[2,3-b]pyridine]: 1000 to 30000 nM.
Next, `C#CC(=O)N1CCC(C(=O)N2CCC(c3cc4c(-c5cnn6ncccc56)ccnc4[nH]3)C2)CC1` (stereo not shown) [Example 147, 1-(4-(3-(4-(Pyrazolo[1,5-b]pyridazin-3-yl)-1H-pyrrolo[2,3-b]pyridin-2-yl)pyrrolidine-1-carbonyl)piperidin-1-yl)prop-2-yn-1-one]: less than 100 nM; `C=CC(=O)N1CCC[C@H]1C(=O)N1CCC(c2cc3c(-c4cnn5ncccc45)ccnc3[nH]2)CC1` [Example 194, (S)-1-(2-(4-(4-(Pyrazolo[1,5-b]pyridazin-3-yl)-1H-pyrrolo[2,3-b]pyridin-2-yl)piperidine-1-carbonyl)pyrrolidin-1-yl)prop-2-en-1-one]: less than 100 nM.
With `C=CC(=O)NCc1ccc(C(=O)NCc2cc3c(-c4cnn5ncccc45)ccnc3[nH]2)cc1` [Example 189, 4-(Acrylamidomethyl)-N-((4-(pyrazolo[1,5-b]pyridazin-3-yl)-1H-pyrrolo[2,3-b]pyridin-2-yl)methyl)benzamide] the figure was 1000 to 30000 nM.
As for `Cc1cc(-c2cnn3ncccc23)c2cc[nH]c2n1` [Example 1, 3-(6-Methyl-1H-pyrrolo[2,3-b]pyridin-4-yl)pyrazolo[1,5-b]pyridazine], the IC50 lay in the range of 1000 to 30000 nM.
Next, `C=CC(=O)N1CCC(CC(=O)NCc2cc3c(-c4cnn5ncccc45)ccnc3[nH]2)CC1` [Example 193, 2-(1-Acryloylpiperidin-4-yl)-N-((4-(pyrazolo[1,5-b]pyridazin-3-yl)-1H-pyrrolo[2,3-b]pyridin-2-yl)methyl)acetamide]: 1000 to 30000 nM.
